Patent US20100317607A1, “USE OF COMPOUNDS FOR PREPARING ANTI-TUBERCULOSIS AGENTS” (INFECTIOUS DISEASE RESEARCH INSTITUTE, priority 2007, published 2010)
Values after ≈ are worked out from the molar mass of the structure shown. Where a name gives a salt, the structure may show the parent alone.

Assays:
[1] = test system: H37Rv strain of M. tuberculosis; assay: Alamar Blue Susceptibility Test (MABA); format: cell-based; conditions: H37Rv strain of M. tuberculosis, Alamar Blue; for MIC: Mycobacterium tuberculosis, read-out: MABA (TB growth inhibition, colourimetric assay)
[2] = test system: non replicating phase of M. tuberculosis (H37Rv with a plasmid with an acetimidase promoter driving a luciferase gene); assay: microbe, parasite or virus in culture; format: cell-based; conditions: non replicating M. tuberculosis H37Rv luciferase strain; for MIC: Mycobacterium tuberculosis, read-out: LORA (TB growth inhibition, MIC)

Row | SMILES | MIC [1] [µM] | MIC [2] [µM] | LORA (TB growth inhibition, MIC) [2] | MABA (TB growth inhibition, colourimetric assay) [1]
1 | C[C@@H](Nc1nc(N2CCCCC2)nc2ccccc12)c1cccc2ccccc12 [Compound 99, (R)—N-(1-(Naphthalen-1-yl)ethyl)-2-(piperidin-1-yl)quinazolin-4-amine hydrochloride] | < 10 | 10 to 50 |  | 
2 | C[C@@H](Nc1nc(N2CCCCC2)nc2ccccc12)c1ccccc1 [Compound 39, (R)—N-(1-Phenylethyl)-2-(piperidin-1-yl)quinazolin-4-amine] | < 10 | 10 to 50 (≈ 3.32 to 16.6 µg/mL) |  | 
3 | c1ccc2c(c1)CCN(c1nc(N3CCCCC3)nc3ccccc13)C2 [Compound 36, 4-(3,4-Dihydroisoquinolin-2(1H)-yl)-2-(piperidin-1-yl)quinazoline] | < 10 | 10 to 50 (≈ 3.44 to 17.2 µg/mL) |  | 
4 | C[C@@H](Nc1nc(N2CCCCC2)nc2ccccc12)c1ccc2ccccc2c1 [Compound 100, (R)—N-(1-(Naphthalen-2-yl)ethyl)-2-(piperidin-1-yl)quinazolin-4-amine hydrochloride] | < 10 | 10 to 50 |  | 
5 | C[C@@H](Nc1nc(N2CCCCC2)nc2ccccc12)c1ccc(C(F)(F)F)cc1 [Compound 117, (R)-2-(Piperidin-1-yl)-N-(1-(4-(trifluoromethyl)phenyl)ethyl)quinazolin-4-amine] | < 10 | < 10 |  | 
6 | c1ccc(CNc2nc(N3CCCC3)nc3ccccc23)cc1 [Compound 22, N-Benzyl-2-(pyrrolidin-1-yl)quinazolin-4-amine] | < 10 | 10 to 50 (≈ 3.04 to 15.2 µg/mL) |  | 
7 | COc1ccc(N2CCN(c3nc(NCc4ccccc4)c4ccccc4n3)CC2)cc1 [Compound 136, N-Benzyl-2-(4-(4-methoxyphenyl)piperazin-1-yl)quinazolin-4-amine hydrochloride] | < 10 | 10 to 50 |  | 
8 | c1ccc(CNc2nc(N3CCC(c4ccccc4)CC3)nc3ccccc23)cc1 [Compound 132, N-Benzyl-2-(4-phenylpiperidin-1-yl)quinazolin-4-amine hydrochloride] | < 10 | < 10 |  | 
9 | Fc1ccc(CNc2nc(N3CCCCC3)nc3ccccc23)cc1F [Compound 116, N-(3,4-Difluorobenzyl)-2-(piperidin-1-yl)quinazolin-4-amine hydrochloride] | < 10 | 10 to 50 |  | 
10 | c1ccc(CN(Cc2ccccc2)c2nc(N3CCCCC3)nc3ccccc23)cc1 [Compound 66, N,N-Dibenzyl-2-(piperidin-1-yl)quinazolin-4-amine] | < 10 | 10 to 50 (≈ 4.09 to 20.4 µg/mL) |  | 
11 | c1ccc(CNc2nc(N3Cc4ccccc4C3)nc3ccccc23)cc1 [Compound 130, N-Benzyl-2-(isoindolin-2-yl)quinazolin-4-amine] | < 10 |  | − | 
12 | FC(F)(F)c1ccc(N2CCN(c3nc(NCc4ccccc4)c4ccccc4n3)CC2)cc1 [Compound 135, N-Benzyl-2-(4-(4-(trifluoromethyl)phenyl)piperazin-1-yl)quinazolin-4-amine hydrochloride] | < 10 | 10 to 50 |  | 
13 | Clc1ccc(CNc2nc(NCc3ccccc3)c3ccccc3n2)cc1 [Compound 127, N^4-Benzyl-N^2-(4-chlorobenzyl)quinazoline-2,4-diamine hydrochloride] | < 10 | < 10 |  | 
14 | Clc1ccccc1CNc1nc(N2CCCCC2)nc2ccccc12 [Compound 40, N-(2-Chlorobenzyl)-2-(piperidin-1-yl)quinazolin-4-amine] | < 10 | 10 to 50 (≈ 3.53 to 17.6 µg/mL) |  | 
15 | Clc1ccc(CNc2nc(N3CCCCC3)c3ccccc3n2)c(Cl)c1 [Compound 112, N-(2,4-Dichlorobenzyl)-4-(piperidin-1-yl)quinazolin-2-amine hydrochloride] | < 10 | < 10 |  | 
16 | CC(Nc1nc(N2CCN(S(C)(=O)=O)CC2)nc2ccccc12)c1ccccc1 (stereo not shown) [Compound 10, 2-(4-(Methylsulfonyl)piperazin-1-yl)-N-(1-phenylethyl)quinazolin-4-amine] | 50 to 128 (≈ 20.6 to 52.7 µg/mL) | 10 to 50 (≈ 4.12 to 20.6 µg/mL) |  | 
17 | c1ccc(CNc2nc(N3CCCCC3)nc3ccccc23)cc1 [Compound 4, N-Benzyl-2-(piperidin-1-yl)quinazolin-4-amine] | < 10 | 10 to 50 (≈ 3.18 to 15.9 µg/mL) |  | 
18 | C[C@@H](Nc1nc(N2CCCCC2)nc2ccccc12)c1ccc(F)cc1 [Compound 98, (R)—N-(1-(4-Fluorophenyl)ethyl)-2-(piperidin-1-yl)quinazolin-4-amine hydrochloride] | < 10 | 10 to 50 |  | 
19 | CC(Nc1nc(N2CCCC2)nc2ccccc12)c1ccccc1 (stereo not shown) [Compound 14, N-(1-Phenylethyl)-2-(pyrrolidin-1-yl)quinazolin-4-amine] | 10 to 50 (≈ 3.18 to 15.9 µg/mL) | 10 to 50 (≈ 3.18 to 15.9 µg/mL) |  | 

Row | SMILES | MIC [1] [µM] | MIC [2] [µM] | LORA (TB growth inhibition, MIC) [2] | MABA (TB growth inhibition, colourimetric assay) [1]
20 | CCC(CC)(Nc1nc(N2CCCC2)nc2ccccc12)c1ccccc1 [Compound 124, N-(3-Phenylpentan-3-yl)-2-(pyrrolidin-1-yl)quinazolin-4-amine] | < 10 | 10 to 50 (≈ 3.61 to 18 µg/mL) |  | 
21 | CC(Nc1nc(N2CCNCC2)nc2ccccc12)c1ccccc1 (stereo not shown) [Compound 8, N-(1-Phenylethyl)-2-(piperazin-1-yl)quinazolin-4-amine] | 50 to 128 (≈ 16.7 to 42.7 µg/mL) | 10 to 50 (≈ 3.33 to 16.7 µg/mL) |  | 
22 | CN(C)c1ccc(CNc2nc(N3CCCCC3)nc3ccccc23)cc1 [Compound 62, N-(4-(Dimethylamino)benzyl)-2-(piperidin-1-yl)quinazolin-4-amine] | < 10 | 10 to 50 (≈ 3.61 to 18.1 µg/mL) |  | 
23 | c1coc(CNc2nc(N3CCCCC3)nc3ccccc23)c1 [Compound 13, N-(Furan-2-ylmethyl)-2-(piperidin-1-yl)quinazolin-4-amine] | < 10 | 10 to 50 (≈ 3.08 to 15.4 µg/mL) |  | 
24 | FC(F)(F)c1ccc(CNc2nc(NCc3ccccc3)c3ccccc3n2)cc1 [Compound 128, N^4-Benzyl-N^2-(4-(trifluoromethyl)benzyl)quinazoline-2,4-diamine hydrochloride] | < 10 | < 10 |  | 
25 | Cc1cccc(CNc2nc(N3CCCCC3)nc3ccccc23)c1 [Compound 80, N-(3-Methylbenzyl)-2-(piperidin-1-yl)quinazolin-4-amine hydrochloride] | < 10 | 10 to 50 |  | 
26 | c1ccc2c(CNc3nc(N4CCCCC4)nc4ccccc34)cccc2c1 [Compound 37, N-(Naphthalen-1-ylmethyl)-2-(piperidin-1-yl)quinazolin-4-amine] | < 10 | < 10 |  | 
27 | CC(Nc1nc(N2CCN(S(=O)(=O)c3ccccc3)CC2)nc2ccccc12)c1ccccc1 (stereo not shown) [Compound 15, N-(1-Phenylethyl)-2-(4-(phenylsulfonyl)piperazin-1-yl)quinazolin-4-amine] | 50 to 128 (≈ 23.7 to 60.6 µg/mL) |  | − | 
28 | FC(F)(F)c1ccc(CNc2nc(N3CCc4ccccc4C3)nc3ccccc23)cc1 [Compound 114, 2-(3,4-Dihydroisoquinolin-2(1H)-yl)-N-(4-(trifluoromethyl)benzyl)quinazolin-4-amine hydrochloride] | < 10 | < 10 |  | 
29 | Clc1ccc(CNc2nc(N3CCCCC3)nc3ccccc23)cc1 [Compound 34, N-(4-Chlorobenzyl)-2-(piperidin-1-yl)quinazolin-4-amine] | < 10 | 10 to 50 (≈ 3.53 to 17.6 µg/mL) |  | 
30 | c1ccc(CNc2cc(N3CCCCC3)nc3ccccc23)cc1 [Compound 54, N-Benzyl-2-(piperidin-1-yl)quinolin-4-amine] | < 10 | < 10 |  | 
31 | c1ccc2c(NC3C4CC5CC(C4)CC3C5)nc(N3CCCCC3)nc2c1 (stereo not shown) [Compound 60, N-(2′-Adamantyl)-2-(piperidin-1-yl)quinazolin-4-amine] |  |  | ++++ (key: TB growth<10 μM=++++; 10-50 μM=+++; 50-128 μM=++; >128 μM but inhibited=+; no inhibition=−) | +++ (10-50 μM=+++)
32 | Fc1ccc(CNc2nc(N3CCCCC3)nc3ccccc23)c(F)c1 [Compound 115, N-(2,4-Difluorobenzyl)-2-(piperidin-1-yl)quinazolin-4-amine hydrochloride] | < 10 | 10 to 50 |  | 
33 | c1ccc(CCNc2nc(N3CCCCC3)nc3ccccc23)cc1 [Compound 33, N-Phenethyl-2-(piperidin-1-yl)quinazolin-4-amine] | < 10 | 10 to 50 (≈ 3.32 to 16.6 µg/mL) |  | 
34 | Clc1ccc(CNc2nc(N3CCc4ccccc4C3)nc3ccccc23)cc1 [Compound 106, N-(4-Chlorobenzyl)-2-(3,4-dihydroisoquinolin-2(1H)-yl)quinazolin-4-amine hydrochloride] | < 10 | < 10 |  | 
35 | CC(Nc1nc(N2CCCCC2)nc2ccccc12)c1ccccc1 (stereo not shown) [Compound 12, N-(1-Phenylethyl)-2-(piperidin-1-yl)quinazolin-4-amine] | 10 to 50 (≈ 3.32 to 16.6 µg/mL) | 10 to 50 (≈ 3.32 to 16.6 µg/mL) |  | 
36 | FC(F)(F)c1ccc(CNc2nc(N3CCCC3)nc3ccccc23)cc1 [Compound 78, 2-(Pyrrolidin-1-yl)-N-(4-(trifluoromethyl)benzyl)quinazolin-4-amine] | < 10 | 10 to 50 (≈ 3.72 to 18.6 µg/mL) |  | 
37 | Cn1ncc2c(NCc3ccccc3)nc(N3CCCC3)nc21 [Compound 20, N-Benzyl-1-methyl-6-(pyrrolidin-1-yl)-1H-pyrazolo[3,4-d]pyrimidin-4-amine] | 50 to 128 (≈ 15.4 to 39.5 µg/mL) |  | − | 
38 | N#Cc1ccc(CNc2nc(N3CCCCC3)nc3ccccc23)cc1 [Compound 92, 4-((2-(Piperidin-1-yl)quinazolin-4-ylamino)methyl)benzonitrile] | < 10 | 50 to 128 (≈ 17.2 to 44 µg/mL) |  | 
